# Experimental data: ChEMBL document CHEMBL2016556, “Discovery of novel P3-oxo inhibitor of hepatitis C virus NS3/4A serine protease” (Bioorg Med Chem Lett, 2012)
# pEC50, pIC50: −log10 of the molar value.
# Legend:
# [1] = Inhibition of Hepatitis C virus genotype 1a NS3/4A protease using Ac-DE-Dap(QXL520)-EE-Abu-psi-COO]-AS-C(5-FAMsp)-NH2 as substrate by FRET analysis; set-up: species or system Hepatitis C virus subtype 1a
# [2] = tested on: Hepatitis C virus; experiment: Antiviral activity against Hepatitis C virus genotype 1b infected in HuH7 cells; type: functional, organism-based, Hepacivirus hominis; conditions: Huh-7
# [3] = tested on: Hepatitis C virus; experiment: Antiviral activity against Hepatitis C virus genotype 1a infected in HuH7 cells; type: functional, organism-based, Hepacivirus hominis; conditions: subtype 1a, Huh-7
# [4] = tested on: Hepatitis C virus; experiment: Antiviral activity against Hepatitis C virus genotype 1b expressing wild type NS3/4A protease infected in HuH7 cells; type: functional, organism-based, Hepacivirus hominis; conditions: Huh-7
# [5] = tested on: Hepatitis C virus; experiment: Antiviral activity against Hepatitis C virus genotype 1b expressing NS3/4A protease A156S mutant infected in HuH7 cells; type: functional, organism-based, Hepacivirus hominis; conditions: Huh-7
# [6] = tested on: Hepatitis C virus; experiment: Antiviral activity against Hepatitis C virus genotype 1b expressing NS3/4A protease A156T mutant infected in HuH7 cells; type: functional, organism-based, Hepacivirus hominis; conditions: Huh-7
# [7] = tested on: Hepatitis C virus; experiment: Antiviral activity against Hepatitis C virus genotype 1b expressing NS3/4A protease A156V mutant infected in HuH7 cells; type: functional, organism-based, Hepacivirus hominis; conditions: Huh-7
# [8] = tested on: Hepatitis C virus; experiment: Antiviral activity against Hepatitis C virus genotype 1b expressing NS3/4A protease […] mutant infected in HuH7 cells; type: functional, organism-based, Hepacivirus hominis; conditions: Huh-7
# [9] = tested on: Hepatitis C virus; experiment: Antiviral activity against Hepatitis C virus genotype 1b expressing NS3/4A protease R155K mutant infected in HuH7 cells; type: functional, organism-based, Hepacivirus hominis; conditions: Huh-7
# [10] = tested on: Hepatitis C virus; experiment: Antiviral activity against Hepatitis C virus genotype 1b expressing NS3/4A protease D168A mutant infected in HuH7 cells; conditions: Hepacivirus hominis, Huh-7
# [11] = Apparent permeability of the compound at pH 7.05 by PAMPA assay; type: ADME
# [12] = Oral bioavailability in rat; type: ADME, organism-based; conditions: in vivo
# [13] = Clearance in rat; type: ADME, organism-based; conditions: in vivo
Compound,pIC50 [1],pEC50 [2],pEC50 [3],pEC50 [4],pEC50 [5],pEC50 [6],pEC50 [7],pEC50 [8],pEC50 [9],pEC50 [10],Papp [11],bioavailability [12],clearance [13]
COc1ccc2c(O[C@@H]3C[C@H]4C(=O)N[C@]5(C(=O)NS(=O)(=O)C6CC6)C[C@H]5/C=C\CCCCCC(OC(=O)NC(C)(C)C)C(=O)N4C3)cc(-c3nc(C(C)C)cs3)nc2c1C (stereo not given in full),7.51,9.10,8.30,8.92,8.60,7.07,6.49,5.97,6.49,6.34,,,
COc1ccc2c(O[C@@H]3C[C@H]4C(=O)N[C@]5(C(=O)NS(=O)(=O)C6CC6)C[C@H]5/C=C\CCCCCC(OC(=O)OC(C)(C)C)C(=O)N4C3)cc(-c3nc(C(C)C)cs3)nc2c1C (stereo not given in full),6.71,7.40,7.30,7.20,,,,,,,,,
COc1ccc2c(O[C@@H]3C[C@H]4C(=O)N[C@]5(C(=O)NS(=O)(=O)C6CC6)C[C@H]5/C=C\CCCCCC(OC(=O)N5CCCCC5)C(=O)N4C3)cc(-c3nc(C(C)C)cs3)nc2c1C (stereo not given in full),7.25,8.49,8.00,8.15,8.01,7.04,6.18,5.40,5.83,5.67,,,
CCOC1CCCCC/C=C\[C@@H]2C[C@@]2(C(=O)NS(=O)(=O)C2CC2)NC(=O)[C@@H]2C[C@@H](Oc3cc(-c4nc(C(C)C)cs4)nc4c(C)c(OC)ccc34)CN2C1=O (stereo not given in full),6.97,7.10,6.60,7.20,7.53,6.40,6.36,6.16,5.40,6.29,,,
COc1ccc2c(O[C@@H]3C[C@H]4C(=O)N[C@]5(C(=O)NS(=O)(=O)C6CC6)C[C@H]5/C=C\CCCCCC(O)C(=O)N4C3)cc(-c3nc(C(C)C)cs3)nc2c1C (stereo not given in full),8.17,9.10,9.00,8.89,10.00,8.59,8.49,7.34,7.22,7.20,,,
CC(C)(C)OC(=O)N[C@H]1CCCCC/C=C\[C@@H]2C[C@@]2(C(=O)NS(=O)(=O)C2CC2)NC(=O)[C@@H]2C[C@@H](OC(=O)N3Cc4cccc(F)c4C3)CN2C1=O [DANOPREVIR],9.40,,,10.00,8.80,8.17,8.08,7.61,7.09,7.31,,,
COc1ccc2c(O[C@@H]3C[C@H]4C(=O)N[C@]5(C(=O)NS(=O)(=O)C6CC6)C[C@H]5/C=C\CCCCCC(OC(=O)n5ccnc5)C(=O)N4C3)cc(-c3nc(C(C)C)cs3)nc2c1C (stereo not given in full),8.49,9.30,9.10,9.30,10.00,8.55,8.41,6.82,7.32,7.15,1.2 ×10⁻⁶ cm/s,12%,53.7 mL/min/kg
